Entries after “also recorded” stand apart in the source; their conditions may differ.
How the values were obtained:
[1] = target: T1, PPI between PRRSV glycoprotein GP2a and CD163-SRCR5 (Sus scrofa, UniProt Q2VL90); test: BiFC assay GP2a/SRCR5; type: cell-based, porcine CD163; PRRSV VR2332; settings: 5 μM; for Average GP2a (relative fluorescence intensity, SRCR5/GP2a BiFC): HEK293T, 24 h after transfection, relative to NC (DMSO) = 1.00, n=3
T1 construct: SRCR5 domain of porcine CD163 receptor was amplified from cDNA of pig cells; expressed in transfected cells; host or cells: HEK293T
Method: (§1) HEK293T cells were cultivated in 6-well plates in FP medium and transfected with 1 μg XpBiFC-VN155 (I152L)-SRCR5 and 1 μg pBiFC-VC155-GP2/GP4 using Fugene6. After 4 h, cells were digested with 0.05% Typsin-EDTA (ThermoFisher Scientific, MA, USA)) and passaged to 48-well plates which were coated with EmbryoMax 0.1% Gelatin Solution (Sigma-Aldrich, MO, USA) and preloaded with 5 μM B7 analogues. Fluorescence images were taken at 24 h after transfection and fluorescence intensity was measured by image J.

[2] = target: T2, PPI between PRRSV GP4 and CD163-SRCR5 domain (Sus scrofa, UniProt Q2VL90); test: BiFC assay GP4/SRCR5; type: cell-based, porcine CD163; PRRSV VR2332; settings: for Average GP4 (relative fluorescence intensity, SRCR5/GP4 BiFC): 5 μM, HEK293T, 24 h after transfection, relative to NC (DMSO), n=3
T2 construct: SRCR5 domain of porcine CD163 receptor was amplified from cDNA of pig cells; expressed in transfected cells; host or cells: HEK293T
Method: as §1

[3] = test system: PRRSV strains NADC30, VR-2332 and Lelystad; test: PRRSV infection assay in PAMs, qRT-PCR for PRRSV; type: cell-based; settings: for antiviral potency, SAR comparison (in words): qRT-PCR and titration in infected PAMs, compared with B7, B7-A4 or G7; for inhibitory effect against PRRSV infection (in words): 15 μM, PAMs, qRT-PCR
Method: PAMs were cultivated in 12-well plates and infected with PRRSV NADC30 strain or Lelystad strain at MOI=0.05 for 1 h. Cells were then incubated with 15 μM B7 analogues for 24 h at 37° C. RNAs were extracted from the PAMs for quantitative reverse transcription-PCR (qRT-PCR) using RNeasy Mini Kits (Qiagen, MD, USA) and supernatants of cells were collected PRRSV titration assay.
RNAs isolated from infected PAMs were reversely transcribed to cDNA using iScript™ cDNA Synthesis Kit (Bio-Rad Laboratories, CA, USA). Specific qRT-PCR primers for ORF7 gene of PRRSV NADC30 and Lelystad strains, and for porcine GAPDH are shown in the Table S2 qRT-PCR reaction was conducted with SYBR Green Supermix (Bimake, TX, USA) using the ABI 7500 Fast Platform (Thermo Fisher Scientific, MA, USA). GAPDH served as the house keeping gene for normalization.

[4] = target: T3, GFP-fusion CD163-SRCR5 (GFP-fused SRCR5 domain of porcine CD163, recombinant, expressed in E. coli BL21 (DE3)) (Sus scrofa, UniProt Q2VL90); test: Microscale thermophoresis (MST) assay: direct association of compounds with purified GFP-fused CD163-SRCR5; type: binding; settings: Monolith NT.115, blue channel, values represent Mean, N=3
T3 construct: GFP and GFP-SRCR2 as controls
Method: The amino acids within the LBP and loop 5-6 regions are underlined. […] B7 was placed in position 1 (Boxes) to show the potential disturbing of both conformations. […] B7 was placed in position 2 (Box) to show the potential disturbing of this conformation. […] Values represent Mean, N=3. […] Values represent Mean, N=3. […] Values represent Mean, N=3.
All chemicals (dissolved in 10 mM in DMSO) were designed and provided by Atomwise, Inc. (CA, USA). Compounds were further diluted in PBS (137 mM NaCl, 2.7 mM KCl, 8 mM Na2HPO4, and 2 mM KH2PO4, pH 7.4, Gibco, MA, USA) to 200 μM as the working solution. Pulmonary alveolar macrophages (PAMs) were harvested from healthy 4-6-month Landrace/Yorkshire pigs. Briefly, pig lungs were removed from euthanized pigs during necropsy and transferred on ice to the lab. 200 mL warm PBS with 200 U/mL penicillin and 200 μg/mL streptomycin was injected into trachea and reached major bronchi of both sides of the lungs. Lungs were then massaged and bronchoalveolar lavage fluid (BALF) was collected. PAMs were harvested from the BALF by centrifugation at 400×g for 15 min and washed in PBS twice. Fresh PAMs were counted and frozen in 90% FBS and 10% DMSO (Sigma-Aldrich, MO) in liquid nitrogen. PAMs were cultivated in RPMI-1640 (Gibco, MA) supplemented with 10% FBS, 2 mM Glutamax, 0.1 mM MEM Non-Essential Amino Acids, 1 mM sodium pyruvate, 100 U/mL penicillin and 100 μg/mL streptomycin, and 0.5 μg/mL Amphotericin B. SRCR5 domain of porcine CD163 receptor was amplified from cDNA of pig cells and inserted into pBiFC-VN155 (I152L). PRRSV GP2a and GP4 were amplified from reverse-transcribed genome of PRRSV VR2332 strain and cloned into pBiFC-VC155 vector as previously described (Huang et al., Virol J 17, 116, 2020). Porcine CD163 was cloned into pMXs vector (Cell Biolabs, CA, USA). For protein purification, […] were cloned into pET28b-GFP (Addgene, MA, USA).
The recombinant pET28b-GFP-SRCR2/SRCR5 constructs were transformed into Escherichia coli strain BL21 (DE3) (New England Biolabs, MA, USA). The transformed clones were cultured at 37° C. in LB broth with […] kanamycin, induced by adding 1 mM isopropyl β-D-1-thiogalactopyranoside at optical density of 0.6-0.8, and then incubated at 37° C. for 3 h. For protein purification, cells were pelleted and resuspended in xTractor Buffer containing DNAse I, lysozyme solution, and Protease Inhibitor Cocktail (Takara Bio USA, Inc., CA). The suspension was sonicated and centrifuged. […]
The purified GFP, GFP-fused SRCR2 or SRCR5 proteins were mixed with serially diluted compounds. The mixtures were loaded to capillaries and the affinity was measured by Monolith NT.115 (NanoTemper Technologies, Inc., CA, USA) at corresponding MST power with the blue channel. […]

T1 sequence (Q2VL90 477-577): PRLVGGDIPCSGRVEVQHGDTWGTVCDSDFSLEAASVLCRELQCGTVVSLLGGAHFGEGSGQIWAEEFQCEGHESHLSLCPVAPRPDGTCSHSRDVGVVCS
T2 sequence (Q2VL90 477-577): as above
T3 sequence (Q2VL90 477-577 limits assumed): as the sequence (Q2VL90 477-577) above

Cc1cc(F)ccc1S(=O)(=O)Nc1nc2ccccc2nc1Nc1ccccc1 [G7]
Average GP2a (relative fluorescence intensity, SRCR5/GP2a BiFC) [1]: 0.15 | Average GP4 (relative fluorescence intensity, SRCR5/GP4 BiFC) [2]: 0.71 | antiviral potency, SAR comparison (in words) [3]: much lower antiviral effect compared with B7; also recorded: obvious loss of the antiviral activity compared with B7

Cc1ccc(Nc2nc3ccccc3nc2NS(=O)(=O)c2ccc(F)cc2C)cc1 [H1]
Average GP2a (relative fluorescence intensity, SRCR5/GP2a BiFC) [1]: 0.24 | Average GP4 (relative fluorescence intensity, SRCR5/GP4 BiFC) [2]: 0.94

O=S(=O)(Nc1nc2ccccc2nc1Nc1ccc(Cl)c(S(=O)(=O)N2CCOCC2)c1)c1ccccc1 [G10]
Average GP2a (relative fluorescence intensity, SRCR5/GP2a BiFC) [1]: 0.13 | Average GP4 (relative fluorescence intensity, SRCR5/GP4 BiFC) [2]: 0.80 | antiviral potency, SAR comparison (in words) [3]: mildly but significantly decreased

COc1ccccc1NS(=O)(=O)c1cccc(Nc2nc3ccccc3nc2NS(=O)(=O)c2ccc(F)cc2C)c1 [Compound F9]
Kd [4]: 24.7 µM

COc1ccc(NS(=O)(=O)c2cccc(Nc3nc4ccccc4nc3NS(=O)(=O)c3ccc(F)cc3C)c2)cc1 [E3]
Average GP2a (relative fluorescence intensity, SRCR5/GP2a BiFC) [1]: 0.10 | Average GP4 (relative fluorescence intensity, SRCR5/GP4 BiFC) [2]: 0.59 | inhibitory effect against PRRSV infection (in words) [3]: low activity | antiviral potency, SAR comparison (in words) [3]: near complete loss of antiviral-potency

Cc1cc(F)ccc1S(=O)(=O)Nc1nc2ccccc2nc1Nc1cccc(Cl)c1Cl [F12]
Average GP2a (relative fluorescence intensity, SRCR5/GP2a BiFC) [1]: 0.31 | inhibition of the PPI between SRCR5-VN and GP2a-VC at pH 6.0 (in words) ([1]; pH 6.0): inhibit the PPI | interference with the PPI between GP4/SRCR5 (in words) [2]: does not effectively interfere | Average GP4 (relative fluorescence intensity, SRCR5/GP4 BiFC) [2]: 0.63 | inhibitory effect against PRRSV infection (in words) [3]: strong | antiviral potency, SAR comparison (in words) [3]: significantly increased antiviral effect; also recorded: antiviral potency nearly identical to B7

Cc1cccc(S(=O)(=O)Nc2nc3ccccc3nc2Nc2cccc(F)c2)c1 [C10]
Average GP2a (relative fluorescence intensity, SRCR5/GP2a BiFC) [1]: 0.33 | Average GP4 (relative fluorescence intensity, SRCR5/GP4 BiFC) [2]: 0.63

Cc1ccccc1Nc1nc2ccccc2nc1NS(=O)(=O)c1ccc(F)cc1C [F7]
Average GP2a (relative fluorescence intensity, SRCR5/GP2a BiFC) [1]: 0.30 | Average GP4 (relative fluorescence intensity, SRCR5/GP4 BiFC) [2]: 0.96

Cc1cccc(S(=O)(=O)Nc2nc3ccccc3nc2Nc2cccc(S(=O)(=O)N3CCCCC3)c2)c1 [E10]
Average GP2a (relative fluorescence intensity, SRCR5/GP2a BiFC) [1]: 0.06 | Average GP4 (relative fluorescence intensity, SRCR5/GP4 BiFC) [2]: 0.06 | antiviral potency, SAR comparison (in words) [3]: no change in antiviral potency

Cc1cccc(S(=O)(=O)Nc2nc3ccccc3nc2Nc2cccc(S(=O)(=O)N3CCCCC3)c2)c1 [Compound E10]
Kd [4]: 38 µM

COc1ccc(Nc2nc3ccccc3nc2NS(=O)(=O)c2ccc(F)cc2C)cc1Cl [A3]
Average GP2a (relative fluorescence intensity, SRCR5/GP2a BiFC) [1]: 0.06 | Average GP4 (relative fluorescence intensity, SRCR5/GP4 BiFC) [2]: 0.43 | inhibitory effect against PRRSV infection (in words) [3]: mild | antiviral potency, SAR comparison (in words) [3]: significantly increased antiviral effect

COc1ccc(Nc2nc3ccccc3nc2NS(=O)(=O)c2ccc(F)cc2C)cc1 [A1]
Average GP2a (relative fluorescence intensity, SRCR5/GP2a BiFC) [1]: 0.63 | Average GP4 (relative fluorescence intensity, SRCR5/GP4 BiFC) [2]: 0.89

O=S(=O)(Nc1nc2ccccc2nc1Nc1cccc(S(=O)(=O)N2CCCCC2)c1)c1ccccc1 [G4]
Average GP2a (relative fluorescence intensity, SRCR5/GP2a BiFC) [1]: 0.04 | Average GP4 (relative fluorescence intensity, SRCR5/GP4 BiFC) [2]: 0.06 | antiviral potency, SAR comparison (in words) [3]: significantly decreased its antiviral potency

COc1ccc(NS(=O)(=O)c2cccc(Nc3nc4ccccc4nc3NS(=O)(=O)c3ccc(F)cc3C)c2)cc1 [Compound E3]
Kd [4]: 330 µM

O=S(=O)(Nc1nc2ccccc2nc1Nc1cccc(S(=O)(=O)N2CCCC2)c1)c1ccccc1 [C6]
Average GP2a (relative fluorescence intensity, SRCR5/GP2a BiFC) [1]: 0.19 | Average GP4 (relative fluorescence intensity, SRCR5/GP4 BiFC) [2]: 0.34 | inhibitory effect against PRRSV infection (in words) [3]: mild

Cc1ccc(S(=O)(=O)Nc2nc3ccccc3nc2Nc2cccc(S(=O)(=O)N3CCCC3)c2)cc1 [A7]
Average GP2a (relative fluorescence intensity, SRCR5/GP2a BiFC) [1]: 0.07 | Average GP4 (relative fluorescence intensity, SRCR5/GP4 BiFC) [2]: 0.53 | inhibitory effect against PRRSV infection (in words) [3]: strong | antiviral potency, SAR comparison (in words) [3]: significant drop of its antiviral potency

Cc1cc(F)ccc1S(=O)(=O)Nc1nc2ccccc2nc1Nc1cccc(Cl)c1C [E4]
Average GP2a (relative fluorescence intensity, SRCR5/GP2a BiFC) [1]: 0.12 | Average GP4 (relative fluorescence intensity, SRCR5/GP4 BiFC) [2]: 0.74

Cc1ccccc1S(=O)(=O)Nc1nc2ccccc2nc1Nc1ccc(S(=O)(=O)N2CCOCC2)cc1 [D2]
Average GP2a (relative fluorescence intensity, SRCR5/GP2a BiFC) [1]: 0.07 | Average GP4 (relative fluorescence intensity, SRCR5/GP4 BiFC) [2]: 0.23 | antiviral potency, SAR comparison (in words) [3]: mildly but significantly decreased

Cc1cc(F)ccc1S(=O)(=O)Nc1nc2ccccc2nc1Nc1cccc(Cl)c1 [E7]
Average GP2a (relative fluorescence intensity, SRCR5/GP2a BiFC) [1]: 0.10 | Average GP4 (relative fluorescence intensity, SRCR5/GP4 BiFC) [2]: 0.69

COc1ccccc1NS(=O)(=O)c1cccc(Nc2nc3ccccc3nc2NS(=O)(=O)c2ccc(F)cc2C)c1 [F9]
Average GP2a (relative fluorescence intensity, SRCR5/GP2a BiFC) [1]: 0.03 | Average GP4 (relative fluorescence intensity, SRCR5/GP4 BiFC) [2]: 0.07 | antiviral potency, SAR comparison (in words) [3]: did not change at all

From patent US20240342167A1, “INHIBITORS OF PORCINE REPRODUCTIVE AND RESPIRATORY SYNDROME VIRUS” (University of Connecticut, priority 2023, published 2024)
